Columns and labels:
MSTO-211H cells = assay: Proliferation Assay (CellTiter-Glo Luminescent Cell Viability Assay); format: cell-based; conditions: Homo sapiens, 96 hours treatment
Description: Example 5: Proliferation Assay
The effect of compound on YAP driven cancer cells proliferation was assessed in MSTO-211H (ATCC, CRL-2081TM) or NCI-H2052 (ATCC, CRL-5915TM) cells using CellTiter-Glo Luminescent Cell Viability Assay (Promega, G7570).
Briefly, individual cell lines were seeded in 96-well cell culture plate at the density of 1,500 cells per well and cultured in RPMII1640 (Gibco-A10491-01)+10% FBS (Gibco-10099-141C)+1% Penicillin-Streptomycin (5,000 U/mL, Gibco-15070-063) overnight at 37° C. with 5% CO2 before adding the compounds.
Following incubation, serial dilutions of compounds dissolved in DMSO were added to each well (3-fold dilution with 9 concentration points). The final concentration of DMSO present in this assay is below 0.5% and make duplication for each compound treated well.
Following 96 hours treatment, compound mediated cell growth inhibition was measured using CellTiter-Go Luminescent Cell Viability Assay (Promega, G7570). […] CellTiter-Glo in each assay well, mix and incubate at room temperature for 10 min. Read signal using EnVision® Multilabel Plate Reader (Perkin Elmer).
For data analysis, cell proliferation inhibition was calculated using the following formula:
Inhibition %=(1−(Compound treated well CTG signal/DMSO well CTG signal))*100.
IC50 values were calculated using GraphPad Prism software using a four-parameter fit model.

[1] = target: TEAD1(210-426) binding to YAP(50-100) (Homo sapiens, UniProt P28347); assay: TR-FRET Assay for TEAD1(210-426) Binding to YAP(50-100); conditions: His-TEAD 10 nM, YAP-Biotin peptide 50 nM
Description: Compounds were performed 3 fold serial dilution, 12 data points, added to 384 well white plate. The final DMSO concentration is 1%, duplicate for each concentration. Then His-TEAD protein was added to a final concentration of 10 nM, and allowed to preincubate for 30 minutes at room temperature. Assay buffer was added as background control.
YAP-Biotin peptide was added to a final concentration of 50 nM, mixed well, incubate 10 minutes at room temperature. The YAP(50-100) peptide sequence used here is named SEQ ID NO: 2
The Europium-labeled anti-6×His antibody and APC labeled streptavidin were diluted according to the instructions, this detection solution was mixed 1:1 with reaction solution, incubated 1 hour at room temperature.
TR-FRET measurements were made on an Envision (Perkin Elmer), using an excitation wavelength of 320 nm and emissions read at 620 nm and 665 nm. The ratio of the 665 nm to the 620 nm multiply 10000 provides a normalized TR-FRET signal that represents the extent of binding.
Half inhibition concentration IC50 value was calculated by XLfit software.

Sequence of TEAD1(210-426) binding to YAP(50-100) (P28347 209-426): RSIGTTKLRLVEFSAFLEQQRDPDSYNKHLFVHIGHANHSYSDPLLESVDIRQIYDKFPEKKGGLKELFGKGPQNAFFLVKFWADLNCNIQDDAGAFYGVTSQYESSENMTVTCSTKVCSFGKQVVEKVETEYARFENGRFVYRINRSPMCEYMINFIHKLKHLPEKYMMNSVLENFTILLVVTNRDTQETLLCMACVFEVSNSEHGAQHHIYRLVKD

| IC50 [1] [nM] | Structure (SMILES) | IC50 (MSTO-211H cells) [nM] |
| --- | --- | --- |
| ≤ 100 | O=c1cc(-c2nn(-c3ccc(C(F)(F)F)cc3)c3ccccc23)ccn1Cc1ccnc(OCCO)n1 [Compound 93, 1-((2-(2-hydroxyethoxy)pyrimidin-4-yl)methyl)-4-(1-(4-(trifluoromethyl)phenyl)-1H-indazol-3-yl)pyridin-2(1H)-one] | ≤ 1000 |
| ≤ 100 | Nc1cc(Cn2ccc(-n3nc(-c4ccc(C(F)(F)F)cc4)c4ncccc43)cc2=O)ccn1 [Compound 121, 1-((2-aminopyridin-4-yl)methyl)-4-(3-(4-(trifluoromethyl)phenyl)-1H-pyrazolo[4,3-b]pyridin-1-yl)pyridin-2(1H)-one] | ≤ 1000 |
| 100 to 1000 | CC(C)n1ccc(-c2nn(-c3ccc(C(F)(F)F)cc3)c3cccnc23)cc1=O [Compound 8, 1-isopropyl-4-(1-(4-(trifluoromethyl)phenyl)-1H-pyrazolo[4,3-b]pyridin-3-yl)pyridin-2(1H)-one] | ≤ 1000 |
| ≤ 100 | O=c1cc(-c2nn(-c3ccc(C(F)(F)F)cc3)c3ncccc23)ccn1Cc1cccnc1 [Compound 88, 1-(pyridin-3-ylmethyl)-4-(1-(4-(trifluoromethyl)phenyl)-1H-pyrazolo[3,4-b]pyridin-3-yl)pyridin-2(1H)-one] | ≤ 1000 |
| ≤ 100 | Cn1nc(Cn2ccc(-c3nn(-c4ccc(C(F)(F)F)cc4)c4ccccc34)cc2=O)ccc1=O [Compound 96, 2-methyl-6-((2-oxo-4-(1-(4-(trifluoromethyl)phenyl)-1H-indazol-3-yl)pyridin-1(2H)-yl)methyl)pyridazin-3(2H)-one] | 1000 to 10000 |
| ≤ 100 | O=c1cc(-c2nn(-c3ccc(C(F)(F)F)cc3)c3ccccc23)ccn1Cc1ccncc1 [Compound 19, 1-(pyridin-4-ylmethyl)-4-(1-(4-(trifluoromethyl)phenyl)-1H-indazol-3-yl)pyridin-2(1H)-one] | ≤ 1000 |
| ≤ 100 | CNc1nccc(Cn2ccc(-c3nn(-c4ccc(C(F)(F)F)cc4)c4cc(F)ccc34)cc2=O)n1 [Compound 141, 4-(6-fluoro-1-(4-(trifluoromethyl)phenyl)-1H-indazol-3-yl)-1-((2-(methylamino)pyrimidin-4-yl)methyl)pyridin-2(1H)-one] | ≤ 1000 |
| ≤ 100 | O=c1cc(-c2nn(-c3ccc(C(F)(F)F)cc3)c3ccccc23)ccn1Cc1cccnc1 [Compound 18, 1-(pyridin-3-ylmethyl)-4-(1-(4-(trifluoromethyl)phenyl)-1H-indazol-3-yl)pyridin-2(1H)-one] | ≤ 1000 |
| ≤ 100 | C[C@@H](c1ccccn1)n1ccc(-n2nc(-c3ccc(C(F)(F)F)cc3)c3ncccc32)cc1=O [Compound 9, (S)-1-(1-(pyridin-2-yl)ethyl)-4-(3-(4-(trifluoromethyl)phenyl)-1H-pyrazolo[4,3-b]pyridin-1-yl)pyridin-2(1H)-one] | ≤ 1000 |
| ≤ 100 | CCC(c1ccccn1)n1ccc(-c2nn(-c3ccc(C(F)(F)F)cc3)c3cccnc23)cc1=O (stereo not shown) [Compound 7, 1-(1-(pyridin-2-yl)propyl)-4-(1-(4-(trifluoromethyl)phenyl)-1H-pyrazolo[4,3-b]pyridin-3-yl)pyridin-2(1H)-one] | 1000 to 10000 |
| ≤ 100 | COCCN(C)c1nccc(Cn2ccc(-c3nn(-c4ccc(C(F)(F)F)cc4)c4c(F)cccc34)cc2=O)n1 [Compound 147, 4-(7-fluoro-1-(4-(trifluoromethyl)phenyl)-1H-indazol-3-yl)-1-((2-((2-methoxyethyl)(methyl)amino)pyrimidin-4-yl)methyl)pyridin-2(1H)-one] | ≤ 1000 |
| ≤ 100 | CNc1ccnc(Cn2ccc(-c3nn(-c4ccc(C(F)(F)F)cc4)c4ncccc34)cc2=O)n1 [Compound 70, 1-((4-(methylamino)pyrimidin-2-yl)methyl)-4-(1-(4-(trifluoromethyl)phenyl)-1H-pyrazolo[3,4-b]pyridin-3-yl)pyridin-2(1H)-one] | ≤ 1000 |
| ≤ 100 | O=c1cc(-c2nn(-c3ccc(OC(F)(F)F)cc3)c3c(F)cccc23)ccn1Cc1ccnc(NCCO)n1 [Compound 151, 4-(7-fluoro-1-(4-(trifluoromethoxy)phenyl)-1H-indazol-3-yl)-1-((2-((2-hydroxyethyl)amino)pyrimidin-4-yl)methyl)pyridin-2(1H)-one] | ≤ 1000 |
| ≤ 100 | O=c1cc(-c2nn(-c3ccc(C(F)(F)F)cc3)c3ccccc23)ccn1Cc1cnccn1 [Compound 63, 1-(pyrazin-2-ylmethyl)-4-(1-(4-(trifluoromethyl)phenyl)-1H-indazol-3-yl)pyridin-2(1H)-one] | ≤ 1000 |
| ≤ 100 | CN(CCO)c1nccc(Cn2ccc(-c3nn(-c4ccc(C(F)(F)F)cc4)c4ncccc34)cc2=O)n1 [Compound 72] | ≤ 1000 |
| ≤ 100 | Nc1cccc(Cn2ccc(-c3nn(-c4ccc(C(F)(F)F)cc4)c4ccccc34)cc2=O)n1 [Compound 60, 1-((6-aminopyridin-2-yl)methyl)-4-(1-(4-(trifluoromethyl)phenyl)-1H-indazol-3-yl)pyridin-2(1H)-one] | ≤ 1000 |
| ≤ 100 | CNc1ccnc(Cn2ccc(-n3nc(-c4ccc(C(F)(F)F)cc4)c4ncccc43)cc2=O)n1 [Compound 48, 1-((4-(methylamino)pyrimidin-2-yl)methyl)-4-(3-(4-(trifluoromethyl)phenyl)-1H-pyrazolo[4,3-b]pyridin-1-yl)pyridin-2(1H)-one] | ≤ 1000 |
| ≤ 100 | O=c1cc(-c2nn(-c3ccc(C(F)(F)F)cc3)c3nccnc23)ccn1Cc1nccc(O)n1 [Compound 100, 1-((4-hydroxypyrimidin-2-yl)methyl)-4-(1-(4-(trifluoromethyl)phenyl)-1H-pyrazolo[3,4-b]pyrazin-3-yl)pyridin-2(1H)-one] | ≤ 1000 |
| ≤ 100 | Cn1ccc(Cn2ccc(-n3nc(-c4ccc(C(F)(F)F)cc4)c4ncccc43)cc2=O)n1 [Compound 41, 1-((1-methyl-1H-pyrazol-3-yl)methyl)-4-(3-(4-(trifluoromethyl)phenyl)-1H-pyrazolo[4,3-b]pyridin-1-yl)pyridin-2(1H)-one] | ≤ 1000 |
| ≤ 100 | O=c1cc(-c2nn(-c3ccc(C(F)(F)F)cc3)c3c(Cl)cccc23)ccn1Cc1ccnc(NCCO)n1 [Compound 148, 4-(7-chloro-1-(4-(trifluoromethyl)phenyl)-1H-indazol-3-yl)-1-((2-((2hydroxyethyl)amino)pyrimidin-4-yl)methyl)pyridin-2(1H)-one] | ≤ 1000 |
| ≤ 100 | C[C@@H](c1ccccn1)n1ccc(-c2nn(-c3ccc(C(F)(F)F)cc3)c3ccc(F)cc23)cc1=O [Compound 33, (S)-4-(5-fluoro-1-(4-(trifluoromethyl)phenyl)-1H-indazol-3-yl)-1-(1-(pyridin-2-yl)ethyl)pyridin-2(1H)-one] | ≤ 1000 |
| 100 to 1000 | Cn1ccnc1Cn1ccc(-n2nc(-c3ccc(C(F)(F)F)cc3)c3ncccc32)cc1=O [Compound 43, 1-((1-methyl-1H-imidazol-2-yl)methyl)-4-(3-(4-(trifluoromethyl)phenyl)-1H-pyrazolo[4,3-b]pyridin-1-yl)pyridin-2(1H)-one] | ≤ 1000 |
| ≤ 100 | CNc1nccc(Cn2ccc(-c3nn(-c4ccc(Cl)cc4)c4c(F)cccc34)cc2=O)n1 [Compound 146, 4-(1-(4-chlorophenyl)-7-fluoro-1H-indazol-3-yl)-1-((2-(methylamino)pyrimidin-4-yl)methyl)pyridin-2(1H)-one] | ≤ 1000 |
| ≤ 100 | Nc1nccc(Cn2ccc(-c3nn(-c4ccc(C(F)(F)F)cc4)c4ccccc34)cc2=O)n1 [Compound 61, 1-((2-aminopyrimidin-4-yl)methyl)-4-(1-(4-(trifluoromethyl)phenyl)-1H-indazol-3-yl)pyridin-2(1H)-one] | ≤ 1000 |
| ≤ 100 | C[C@@H](c1ccccn1)n1ccc(-c2nn(-c3ccc(C(F)(F)F)cc3)c3ncccc23)cc1=O [Compound 20, (S)-1-(1-(pyridin-2-yl)ethyl)-4-(1-(4-(trifluoromethyl)phenyl)-1H-pyrazolo[3,4-b]pyridin-3-yl)pyridin-2(1H)-one] | ≤ 1000 |
| ≤ 100 | COCCOc1nccc(Cn2ccc(-c3nn(-c4ccc(C(F)(F)F)cc4)c4cccc(F)c34)cc2=O)n1 [Compound 154, 4-(4-fluoro-1-(4-(trifluoromethyl)phenyl)-1H-indazol-3-yl)-1-((2-(2-methoxyethoxy)pyrimidin-4-yl)methyl)pyridin-2(1H)-one] | ≤ 1000 |

From US20250154127A1, “BICYCLIC HETEROARYL COMPOUNDS AND USES THEREOF” (ETERN BIOPHARMA (SHANGHAI) CO., LTD., priority 2022, published 2025)
